According to ChEMBL document CHEMBL4002584, “Synthesis and antibacterial activities of novel pleuromutilin derivatives with a substituted pyrimidine moiety” (2017):
≈ marks a conversion by molar mass, not a printed value.

Experiments:
Format in all cases: functional
[1] = tested on: Bacillus subtilis; assay: Antibacterial activity against Bacillus subtilis CMCC (B) 63501 at 320 ug/ml after 24 to 36 hrs by oxford cup assay; details: read-out: DIZ
[2] = tested on: Staphylococcus aureus; assay: Antibacterial activity against […] Staphylococcus aureus ATCC 29213 at 160 ug/ml after 24 to 36 hrs by oxford cup assay; details: read-out: DIZ
[3] = tested on: Escherichia coli; assay: Antibacterial activity against Escherichia coli CMCC (B) 44102 at 160 ug/ml after 24 to 36 hrs by oxford cup assay; details: read-out: DIZ
[4] = tested on: Staphylococcus aureus; assay: Antibacterial activity against […] Staphylococcus aureus ATCC 29213 at 320 ug/ml after 24 to 36 hrs by oxford cup assay; details: read-out: DIZ
[5] = tested on: Staphylococcus aureus; assay: Antibacterial activity against […] Staphylococcus aureus ATCC 33591 at 160 ug/ml after 24 to 36 hrs by oxford cup assay; details: read-out: DIZ
[6] = tested on: Staphylococcus aureus; assay: Antibacterial activity against […] Staphylococcus aureus ATCC 29213 after 24 to 48 hrs by agar dilution method
[7] = tested on: Staphylococcus aureus; assay: Antibacterial activity against Staphylococcus aureus CMCC (B) 26003 after 24 to 48 hrs by agar dilution method
[8] = tested on: Escherichia coli; assay: Antibacterial activity against Escherichia coli CMCC (B) 44102 after 24 to 48 hrs by agar dilution method
[9] = tested on: Staphylococcus aureus; assay: Antibacterial activity against Staphylococcus aureus CMCC (B) 26003 at 320 ug/ml after 24 to 36 hrs by oxford cup assay; details: read-out: DIZ
[10] = tested on: Bacillus subtilis; assay: Antibacterial activity against Bacillus subtilis CMCC (B) 63501 after 24 to 48 hrs by agar dilution method
[11] = tested on: Staphylococcus aureus; assay: Antibacterial activity against […] Staphylococcus aureus ATCC 33591 after 24 to 48 hrs by agar dilution method
[12] = tested on: Staphylococcus aureus; assay: Antibacterial activity against Staphylococcus aureus CMCC (B) 26003 at 160 ug/ml after 24 to 36 hrs by oxford cup assay; details: read-out: DIZ
[13] = tested on: Bacillus subtilis; assay: Antibacterial activity against Bacillus subtilis CMCC (B) 63501 at 160 ug/ml after 24 to 36 hrs by oxford cup assay; details: read-out: DIZ
[14] = tested on: Staphylococcus aureus; assay: Antibacterial activity against […] Staphylococcus aureus ATCC 33591 at 320 ug/ml after 24 to 36 hrs by oxford cup assay; details: read-out: DIZ
[15] = tested on: Escherichia coli; assay: Antibacterial activity against Escherichia coli CMCC (B) 44102 at 320 ug/ml after 24 to 36 hrs by oxford cup assay; details: read-out: DIZ
[16] = tested on: Staphylococcus aureus; assay: Bactericidal activity against […] Staphylococcus aureus ATCC 29213 after 1 to 24 hrs by time-kill assay
[17] = tested on: Staphylococcus aureus; assay: Bactericidal activity against Staphylococcus aureus CMCC (B) 26003 assessed as bacterial level at MIC after 1 to 24 hrs by time-kill assay
[18] = tested on: Staphylococcus aureus; assay: Bactericidal activity against Staphylococcus aureus CMCC (B) 26003 after 1 to 24 hrs by time-kill assay
[19] = tested on: Staphylococcus aureus; assay: Bactericidal activity against Staphylococcus aureus CMCC (B) 26003 at 6 times MIC after 4 hrs by time-kill assay relative to control
[20] = tested on: Staphylococcus aureus; assay: Antibacterial activity against […] Staphylococcus aureus ATCC 29213 in iv dosed Balb/c mouse systemic infection model assessed as increase in mouse survival after 7 days

Compound | zone of inhibition at 320 µg/mL [1] [mm] | zone of inhibition at 160 µg/mL [2] [mm] | zone of inhibition at 160 µg/mL [3] [mm] | zone of inhibition at 320 µg/mL [4] [mm] | zone of inhibition at 160 µg/mL [5] [mm] | MIC [6] [µg/mL] | MIC [7] [µg/mL] | MIC [8] [µg/mL] | zone of inhibition at 320 µg/mL [9] [mm] | MIC [10] [µg/mL] | MIC [11] [µg/mL] | zone of inhibition at 160 µg/mL [12] [mm] | zone of inhibition at 160 µg/mL [13] [mm] | zone of inhibition at 320 µg/mL [14] [mm] | zone of inhibition at 320 µg/mL [15] [mm] | further results
C=C[C@]1(C)C[C@@H](OC(=O)CSc2nc(N)cc(NC(=O)CN3CC[C@H](O)C3)n2)[C@]2(C)[C@H](C)CC[C@]3(CCC(=O)[C@H]32)[C@@H](C)[C@@H]1O | 15.8 | 22.1 | 8.86 | 29.6 | 22.7 | 0.125 (≈ 0.198 µM) | 0.125 (≈ 0.198 µM) | 8 (≈ 12.7 µM) | 32.7 | 2 (≈ 3.18 µM) | 0.25 (≈ 0.397 µM) | 22.1 | 13.6 | 33.3 | 10.5 | 
C=C[C@]1(C)C[C@@H](OC(=O)CSc2nc(N)cc(NC(=O)CN3CCC[C@@H](CO)C3)n2)[C@]2(C)[C@H](C)CC[C@]3(CCC(=O)[C@H]32)[C@@H](C)[C@@H]1O | 22.2 | 26.5 | 10.3 | 34.4 | 25.8 | 0.125 (≈ 0.19 µM) | 0.0625 (≈ 0.095 µM) | 4 (≈ 6.08 µM) | 38.1 | 1 (≈ 1.52 µM) | 0.125 (≈ 0.19 µM) | 25.9 | 17.7 | 35.1 | 13.3 | 
C=C[C@]1(C)C[C@@H](OC(=O)CSc2nc(N)cc(NC(=O)CN3CCC(O)CC3)n2)[C@]2(C)[C@H](C)CC[C@]3(CCC(=O)[C@H]32)[C@@H](C)[C@@H]1O | 16.1 | 21 | 8.54 | 30.5 | 23.5 | 0.25 (≈ 0.388 µM) | 0.125 (≈ 0.194 µM) | 4 (≈ 6.21 µM) | 30.6 | 2 (≈ 3.11 µM) | 0.25 (≈ 0.388 µM) | 21.1 | 13.6 | 34.4 | 11.4 | 
C=C[C@]1(C)C[C@@H](OC(=O)CSc2nc(N)cc(NC(=O)CN3CCOCC3)n2)[C@]2(C)[C@H](C)CC[C@]3(CCC(=O)[C@H]32)[C@@H](C)[C@@H]1O | 19.6 | 20.2 | 9.82 | 28 | 17.9 | 0.25 (≈ 0.397 µM) | 0.125 (≈ 0.198 µM) | 4 (≈ 6.35 µM) | 35.4 | 2 (≈ 3.18 µM) | 1 (≈ 1.59 µM) | 24.7 | 14.2 | 26.8 | 11.9 | 
C=C[C@]1(C)C[C@@H](OC(=O)CSc2nc(N)cc(NC(=O)CN(CC)CC)n2)[C@]2(C)[C@H](C)CC[C@]3(CCC(=O)[C@H]32)[C@@H](C)[C@@H]1O | 15.7 | 16.4 | 10.1 | 22.3 | 19.9 | 0.5 (≈ 0.812 µM) | 0.125 (≈ 0.203 µM) | 8 (≈ 13 µM) | 34.2 | 4 (≈ 6.5 µM) | 0.25 (≈ 0.406 µM) | 23.6 | 13.4 | 25.8 | 12 | 
C=C[C@]1(C)C[C@@H](OC(=O)CSCCN(CC)CC)[C@]2(C)[C@H](C)CC[C@]3(CCC(=O)[C@H]32)[C@@H](C)[C@@H]1O [TIAMULIN] | 21.3 | 22.9 | 9.42 | 29.4 | 20.2 | 0.25 (≈ 0.506 µM) | 0.0625 (≈ 0.127 µM) | 4 (≈ 8.1 µM) | 37.9 | 2 (≈ 4.05 µM) | 0.125 (≈ 0.253 µM) | 26.1 | 17.4 | 33.9 | 13.3 | Activity [16]: Dose-dependent effect; Activity [17]: 3 - 4 log10CFU/ml; Activity [18]: Dose-dependent effect; fold change (FC) [19]: >6; Activity [20]: Dose-dependent effect; ED50 ([20]; ATCC 29213, iv, 168 h): 5.94 mg/kg
